These results are taken from patent US8992945B2, “Supramacromolecular polymer complexes providing controlled nitric oxide release for healing wounds” (University of Toronto, priority 2007, dated 2015).

Data set [1] is described as follows: Kinetics of NO decomposition from RSNOs in aqueous medium (UV-Vis absorbance at 545 nm). The format is physicochemical. To be noted: for NO decomposition rate (order of decay slopes): 0.1 N HCl, 22° C., similar initial solution concentrations, FIG. 5. The procedure:
In this invention, GSHEE and phytochelatin are being used for the first time as NO donors. […] Their stability in aqueous medium was explored using the UV-Vis Spectrophotometer. Solutions of all RSNOs for this stability study were synthesized according to Example 1. Their decomposition kinetics in these solutions at room temperature was obtained from the time dependent absorbance changes at 545 nm in time intervals of 10 min.
A good linearity is obtained for all three curves, from the decay slopes, it can be seen that NO decomposition rate decreases in the order of GSNO>S-Nitroso-GSHEE>S-nitroso-PC5.

The conditions of data set [2]: NO endogenously synthesized by vascular endothelial cells; cited from earlier work.

Each structure is given as a SMILES string.

As for `N[C@@H](CCC(=O)N[C@@H](CSN=O)C(=O)NCC(=O)O)C(=O)O` [GSNO, S-nitrosoglutathione], in data set [1], the “NO decomposition rate (order of decay slopes)” value is reported as “GSNO>S-Nitroso-GSHEE>S-nitroso-PC5”. Moreover, the “NO dissociation from GSNO” value in data set [1] (acidic and neutral medium, room condition (22° C.), FIG. 1) is given as “continuously dissociates”.
As for `CCOC(=O)CNC(=O)C(CSN=O)NC(=O)CCC(N)C(=O)O` (stereo not shown) [S-Nitroso-GSHEE], the “NO decomposition rate (order of decay slopes)” value in data set [1] is recorded as “GSNO>S-Nitroso-GSHEE>S-nitroso-PC5”.
As for `[N]=O` [NO, nitric oxide], the biological half life in data set [2] is reported as not above 5 sec.
